According to patent US8008354B2, “Death receptor sensitizing compounds and methods of use therefor” (Burnham Institute for Medical Research, priority 2006, dated 2011):

Test system: dsRed-PPC-1 cells
Test: In vivo survival and growth of pre-treated dsRed-PPC-1 cells injected into SCID mice
Description: FIG. 16. Decreases in cellular FLIP levels by siRNA diminishes the in vivo survival and growth of circulating prostate cancer cells. (A) Fluorescent dsRed-PPC-1 cells were transfected in culture with anti-FLIP siRNA (siFLIP, 25 nM) or control siRNA (siCtrl, 25 nM). Eight hours after transfection cells were harvested and 3.5×10^6 viable cells were injected into the tail veins of sublethally irradiated SCID mice. Five weeks after injection, or when mice became moribund, mice were sacrificed and their organs imaged using a fluorescent microscope (n=9). Representative images of tumor formation in the lung, bone, and liver are shown. (B) The total number and area of distant tumors from mice described above were quantified using image analysis software. Tumors were quantified from all five lobes of the lungs. Data points represent measurements from each mouse. Differences in the number and area of tumors are significant by the rank sum test. The bar represents the median of the population. Measurements were completed on unaltered images.
FIG. 17. Decreases in cellular FLIP levels by 5809354 diminishes the in vivo survival and growth of circulating prostate cancer cells. (A) Fluorescent dsRed-PPC-1 cells were treated in culture with 5809354 (30 μM) or buffer control. Sixteen hours after treatment cells were harvested and 3.5×10^6 viable cells were injected into the tail veins of sublethally irradiated SCID mice. Five weeks after injection, or when mice became moribund, mice were sacrificed and their organs imaged using a fluorescent microscope (n=8). Representative images of tumor formation in the lung, bone, and liver are shown. (B) The number and area of distant tumors from mice described above were quantified using image analysis software. Tumors were quantified from all five lobes of the lungs. Data points represent measurements from each mouse. Differences in the number and area of tumors are significant by the rank sum test. […]
In vivo studies. […] 3.5×10^6 viable cells (as measured by trypan blue exclusion assay) were either injected via the tail vein or subcutaneously into the hind limbs into sublethally irradiated (3.5 Gy) SCID mice (10 mice per treatment). […] Red fluorescent tumors were detected via whole body imaging and whole organ imaging using a Leica MZ FLIII fluorescent stereomicroscope with a 100 W mercury lamp, a 560/40 excitation filter, and a 610 long-pass emission filter. Images were acquired using a Leica DC350 digital camera at 0.8× magnification and analyzed using Image Pro Plus 6.0 (MediaCybernetics). A single common threshold was applied to identify and measure fluorescence in each organ (Cairns et al., 2004). The number of fluorescent spots and the corresponding pixel area were recorded for each lung lobe. All quantification was performed on unmanipulated images. […]

## 4-(4-chloro-2-methylphenoxy)-N-hydroxybutanamide [compound 5809354]
Cells treated in culture (5809354 30 μM 16 hours; FLIP siRNA 25 nM 8 hours), injected into tail veins of sublethally irradiated SCID mice
  Median survival: 32 days
Intravenous injection of treated cells, five weeks or when moribund
  tumor formation in lung, bone, and liver: decreased tumor formation
Intravenous injection of treated cells, image-based analysis
  median tumor number and median total tumor area within the lung: decreased
Subcutaneous injection of treated cells, 3 weeks (data not shown)
  tumor weight after subcutaneous injection: no difference
